Source: ChEMBL document CHEMBL1201862, “PubChem BioAssay data set” (2004)
Active and inactive are the calls of the source.

Columns and labels:
[1] = target: T1, Calpain-2 catalytic subunit (Sus scrofa, UniProt P43367); test: pig calpain II inhibitor potency, dose response, biochemical, fluorogenic peptide substrate (AID 1420); format: functional
T1 sequence (P43367 whole entry): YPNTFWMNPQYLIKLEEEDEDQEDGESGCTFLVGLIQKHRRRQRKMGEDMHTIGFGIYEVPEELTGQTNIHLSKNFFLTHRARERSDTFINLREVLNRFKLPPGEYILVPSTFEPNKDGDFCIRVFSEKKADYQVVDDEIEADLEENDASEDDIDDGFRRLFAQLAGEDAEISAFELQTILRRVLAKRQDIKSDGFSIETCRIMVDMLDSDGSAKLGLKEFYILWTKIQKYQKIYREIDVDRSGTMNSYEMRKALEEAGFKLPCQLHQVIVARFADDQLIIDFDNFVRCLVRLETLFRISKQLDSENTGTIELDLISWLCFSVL

SUMO-activating enzyme [2] = target: T2, SUMO-activating enzyme (Homo sapiens, UniProt Q9UBT2); test: SUMOylation inhibitor hit validation, confirmation, SUMOylation inhibitor project, biochemical, AlphaScreen (AID 2018); format: functional
SUMO-activating enzyme [3] = target: T2, SUMO-activating enzyme; test: inhibitors of in vitro SUMOylation cascade, primary screen, biochemical, HTRF, uHTS (AID 2006); format: protein-complex assay
Troponin, cardiac muscle = Troponin, cardiac muscle (Homo sapiens, UniProt P19429+P45379+P63316); test: Fluorescence-based biochemical high throughput dose response assay for activators of the calcium sensitivity of cardiac Regulated Thin Filaments (RTF). [Related pubchem assays (depositor defined):AID493008, AID493018, AID504382, AID504383]; format: protein-complex assay
Aminopeptidase N = target: T3, Aminopeptidase N (Plasmodium falciparum FcB1/Columbia, UniProt O96935); test: P. falciparum M1AAP inhibitors, biochemical, fluorogenic H-Leu-NHMec substrate, 1536-well (AID 1445); design: species or system Plasmodium falciparum 3D7, 3D7
T3 sequence (O96935 whole entry): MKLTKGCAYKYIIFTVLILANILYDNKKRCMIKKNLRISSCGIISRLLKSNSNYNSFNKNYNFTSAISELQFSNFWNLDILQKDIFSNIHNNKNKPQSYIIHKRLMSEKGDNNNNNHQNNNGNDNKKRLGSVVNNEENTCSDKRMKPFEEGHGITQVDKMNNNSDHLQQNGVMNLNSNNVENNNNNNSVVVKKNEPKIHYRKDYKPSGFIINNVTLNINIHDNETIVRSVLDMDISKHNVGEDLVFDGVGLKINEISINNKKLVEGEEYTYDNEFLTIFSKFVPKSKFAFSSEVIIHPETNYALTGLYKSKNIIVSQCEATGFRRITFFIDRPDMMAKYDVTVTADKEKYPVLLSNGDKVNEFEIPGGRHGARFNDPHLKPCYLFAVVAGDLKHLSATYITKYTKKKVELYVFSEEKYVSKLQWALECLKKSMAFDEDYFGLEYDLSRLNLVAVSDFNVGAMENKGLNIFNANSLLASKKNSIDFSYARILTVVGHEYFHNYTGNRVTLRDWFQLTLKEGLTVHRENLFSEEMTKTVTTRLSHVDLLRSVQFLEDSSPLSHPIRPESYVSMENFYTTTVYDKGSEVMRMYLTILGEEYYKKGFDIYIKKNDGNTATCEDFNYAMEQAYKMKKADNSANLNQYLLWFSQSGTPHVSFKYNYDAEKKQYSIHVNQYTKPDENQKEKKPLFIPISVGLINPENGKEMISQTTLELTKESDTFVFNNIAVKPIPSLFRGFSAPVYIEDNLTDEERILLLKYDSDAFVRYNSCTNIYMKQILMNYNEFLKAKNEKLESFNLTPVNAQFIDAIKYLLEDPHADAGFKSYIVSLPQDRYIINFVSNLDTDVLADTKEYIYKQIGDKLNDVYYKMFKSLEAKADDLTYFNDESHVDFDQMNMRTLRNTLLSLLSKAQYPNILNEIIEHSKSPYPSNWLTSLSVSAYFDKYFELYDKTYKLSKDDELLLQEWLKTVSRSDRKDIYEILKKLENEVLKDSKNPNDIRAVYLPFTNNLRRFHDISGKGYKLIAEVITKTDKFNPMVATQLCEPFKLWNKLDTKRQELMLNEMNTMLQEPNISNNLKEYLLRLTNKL

Leucine aminopeptidase = target: T4, Leucine aminopeptidase (Plasmodium falciparum 3D7, UniProt Q8IL11); test: P. falciparum M17LAP inhibitors, primary screen, biochemical, fluorogenic H-Leu-NHMec substrate, 1536-well (AID 1619); format: functional
T4 sequence (Q8IL11 whole entry): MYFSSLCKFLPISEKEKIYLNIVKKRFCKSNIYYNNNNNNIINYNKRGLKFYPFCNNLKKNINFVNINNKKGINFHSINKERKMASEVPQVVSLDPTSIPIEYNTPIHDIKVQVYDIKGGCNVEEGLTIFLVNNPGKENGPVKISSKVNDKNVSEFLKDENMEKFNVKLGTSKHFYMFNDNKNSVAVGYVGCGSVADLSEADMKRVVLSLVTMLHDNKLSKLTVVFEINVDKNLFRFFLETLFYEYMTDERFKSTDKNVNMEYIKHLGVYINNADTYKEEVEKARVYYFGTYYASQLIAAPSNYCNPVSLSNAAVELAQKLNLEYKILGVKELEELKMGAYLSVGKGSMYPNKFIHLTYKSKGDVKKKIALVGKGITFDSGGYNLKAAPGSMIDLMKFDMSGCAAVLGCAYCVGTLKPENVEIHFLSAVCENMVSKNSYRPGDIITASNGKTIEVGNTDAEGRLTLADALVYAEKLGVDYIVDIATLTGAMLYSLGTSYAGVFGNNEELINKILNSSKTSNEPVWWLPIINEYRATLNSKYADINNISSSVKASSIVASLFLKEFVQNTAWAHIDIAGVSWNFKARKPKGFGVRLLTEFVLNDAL

[4] = test system: Streptococcus sp. 'group A'; test: growth inhibition of control SK(-) GAS strain, dose response, counter-screen for streptokinase expression inhibitor project, luminescence, kanamycin, BacTiterGlo, confirmation (AID 1900); format: functional, organism-based
[5] = target: T5, Short transient receptor potential channel 4 (Mus musculus, UniProt Q9QUQ5); test: mouse TRPC4 channel inhibitors, dose response, cell-based, HEK293 TRPC4/mu-opioid, Fluo-4 calcium (AID 434942); format: functional;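 also: potency of inhibitors blocking the TRPC4 calcium response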
T5 sequence (Q9QUQ5 whole entry): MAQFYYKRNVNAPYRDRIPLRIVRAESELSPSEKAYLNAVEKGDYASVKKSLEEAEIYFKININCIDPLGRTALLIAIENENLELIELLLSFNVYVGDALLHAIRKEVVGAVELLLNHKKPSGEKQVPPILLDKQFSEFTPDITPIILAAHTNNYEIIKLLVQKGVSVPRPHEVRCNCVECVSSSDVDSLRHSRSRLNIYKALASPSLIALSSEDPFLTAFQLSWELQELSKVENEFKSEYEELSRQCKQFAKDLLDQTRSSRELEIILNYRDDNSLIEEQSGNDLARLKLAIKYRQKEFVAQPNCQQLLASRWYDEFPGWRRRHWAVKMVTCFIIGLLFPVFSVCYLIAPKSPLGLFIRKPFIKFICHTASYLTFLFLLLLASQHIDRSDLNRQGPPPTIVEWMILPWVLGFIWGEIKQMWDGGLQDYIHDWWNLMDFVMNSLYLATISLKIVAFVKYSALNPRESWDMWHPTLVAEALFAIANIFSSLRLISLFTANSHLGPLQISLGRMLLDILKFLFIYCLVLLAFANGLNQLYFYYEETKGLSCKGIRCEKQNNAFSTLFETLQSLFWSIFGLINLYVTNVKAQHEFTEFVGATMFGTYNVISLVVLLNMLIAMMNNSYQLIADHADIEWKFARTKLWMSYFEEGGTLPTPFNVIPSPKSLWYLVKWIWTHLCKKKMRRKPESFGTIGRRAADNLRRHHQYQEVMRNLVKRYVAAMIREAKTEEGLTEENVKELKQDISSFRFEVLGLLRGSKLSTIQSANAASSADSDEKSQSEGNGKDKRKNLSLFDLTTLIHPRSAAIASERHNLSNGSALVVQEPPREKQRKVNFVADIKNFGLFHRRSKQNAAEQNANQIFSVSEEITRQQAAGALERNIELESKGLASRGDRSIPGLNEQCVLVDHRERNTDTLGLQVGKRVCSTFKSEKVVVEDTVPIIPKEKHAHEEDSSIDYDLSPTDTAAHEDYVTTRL

[6] = target: T5, Short transient receptor potential channel 4; test: mouse TRPC4 channel activators, dose response, cell-based, HEK293 TRPC4/mu-opioid, Fluo-4 calcium (AID 434937); format: functional
Streptococcus = test: Group A Streptococcus viability loss, dose response, counter-screen for streptokinase expression inhibitor project, luminescence, BacTiterGlo (AID 1915); format: functional, organism-based;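 also: potency for reduction of bacterial viability or growth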
[7] = target: Voltage-dependent T-type calcium channel subunit alpha-1H (Homo sapiens, UniProt O95180); format: functional;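 also: channel activity triggered by adding a high calcium stimulation buffer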
CAAX prenyl protease 2 = target: T6, CAAX prenyl protease 2 (Saccharomyces cerevisiae S288c, UniProt Q03530); format: biochemical
T6 sequence (Q03530 whole entry): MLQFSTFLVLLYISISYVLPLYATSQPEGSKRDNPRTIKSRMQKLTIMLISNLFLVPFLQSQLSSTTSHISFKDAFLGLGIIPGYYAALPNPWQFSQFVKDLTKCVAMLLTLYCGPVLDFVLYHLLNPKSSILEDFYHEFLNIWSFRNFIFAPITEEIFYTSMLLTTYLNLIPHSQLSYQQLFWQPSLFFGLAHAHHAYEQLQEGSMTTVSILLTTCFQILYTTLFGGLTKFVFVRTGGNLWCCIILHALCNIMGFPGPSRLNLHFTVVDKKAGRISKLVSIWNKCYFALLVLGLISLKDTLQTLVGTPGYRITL

[8] = target: Melanin-concentrating hormone receptor 1 (Homo sapiens, UniProt Q99705); test: Late-stage fluorescence-based counterscreen for antagonists of the G-protein coupled receptor 7 (GPR7): cell-based dose response assay to identify antagonists of the melanin-concentrating hormone receptor 1 (MCHR1). [Related pubchem assays (depositor defined):AID1861, AID1880, AID1952, AID2148, AID2251, AID2257, AID485339]; format: functional;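 also: stimulated with 30 nM MCH peptide agonist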
Sequence of Melanin-concentrating hormone receptor 1 (Q99705 whole entry): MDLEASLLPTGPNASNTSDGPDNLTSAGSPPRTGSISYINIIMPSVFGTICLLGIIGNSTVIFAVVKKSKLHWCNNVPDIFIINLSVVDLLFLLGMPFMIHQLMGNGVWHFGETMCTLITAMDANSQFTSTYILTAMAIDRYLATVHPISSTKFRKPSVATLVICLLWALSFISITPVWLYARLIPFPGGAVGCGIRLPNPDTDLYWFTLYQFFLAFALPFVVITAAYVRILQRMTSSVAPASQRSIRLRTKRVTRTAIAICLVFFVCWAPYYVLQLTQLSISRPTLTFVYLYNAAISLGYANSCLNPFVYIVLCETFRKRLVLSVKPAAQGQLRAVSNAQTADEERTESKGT

Sequence of Voltage-dependent T-type calcium channel subunit alpha-1H (O95180 whole entry): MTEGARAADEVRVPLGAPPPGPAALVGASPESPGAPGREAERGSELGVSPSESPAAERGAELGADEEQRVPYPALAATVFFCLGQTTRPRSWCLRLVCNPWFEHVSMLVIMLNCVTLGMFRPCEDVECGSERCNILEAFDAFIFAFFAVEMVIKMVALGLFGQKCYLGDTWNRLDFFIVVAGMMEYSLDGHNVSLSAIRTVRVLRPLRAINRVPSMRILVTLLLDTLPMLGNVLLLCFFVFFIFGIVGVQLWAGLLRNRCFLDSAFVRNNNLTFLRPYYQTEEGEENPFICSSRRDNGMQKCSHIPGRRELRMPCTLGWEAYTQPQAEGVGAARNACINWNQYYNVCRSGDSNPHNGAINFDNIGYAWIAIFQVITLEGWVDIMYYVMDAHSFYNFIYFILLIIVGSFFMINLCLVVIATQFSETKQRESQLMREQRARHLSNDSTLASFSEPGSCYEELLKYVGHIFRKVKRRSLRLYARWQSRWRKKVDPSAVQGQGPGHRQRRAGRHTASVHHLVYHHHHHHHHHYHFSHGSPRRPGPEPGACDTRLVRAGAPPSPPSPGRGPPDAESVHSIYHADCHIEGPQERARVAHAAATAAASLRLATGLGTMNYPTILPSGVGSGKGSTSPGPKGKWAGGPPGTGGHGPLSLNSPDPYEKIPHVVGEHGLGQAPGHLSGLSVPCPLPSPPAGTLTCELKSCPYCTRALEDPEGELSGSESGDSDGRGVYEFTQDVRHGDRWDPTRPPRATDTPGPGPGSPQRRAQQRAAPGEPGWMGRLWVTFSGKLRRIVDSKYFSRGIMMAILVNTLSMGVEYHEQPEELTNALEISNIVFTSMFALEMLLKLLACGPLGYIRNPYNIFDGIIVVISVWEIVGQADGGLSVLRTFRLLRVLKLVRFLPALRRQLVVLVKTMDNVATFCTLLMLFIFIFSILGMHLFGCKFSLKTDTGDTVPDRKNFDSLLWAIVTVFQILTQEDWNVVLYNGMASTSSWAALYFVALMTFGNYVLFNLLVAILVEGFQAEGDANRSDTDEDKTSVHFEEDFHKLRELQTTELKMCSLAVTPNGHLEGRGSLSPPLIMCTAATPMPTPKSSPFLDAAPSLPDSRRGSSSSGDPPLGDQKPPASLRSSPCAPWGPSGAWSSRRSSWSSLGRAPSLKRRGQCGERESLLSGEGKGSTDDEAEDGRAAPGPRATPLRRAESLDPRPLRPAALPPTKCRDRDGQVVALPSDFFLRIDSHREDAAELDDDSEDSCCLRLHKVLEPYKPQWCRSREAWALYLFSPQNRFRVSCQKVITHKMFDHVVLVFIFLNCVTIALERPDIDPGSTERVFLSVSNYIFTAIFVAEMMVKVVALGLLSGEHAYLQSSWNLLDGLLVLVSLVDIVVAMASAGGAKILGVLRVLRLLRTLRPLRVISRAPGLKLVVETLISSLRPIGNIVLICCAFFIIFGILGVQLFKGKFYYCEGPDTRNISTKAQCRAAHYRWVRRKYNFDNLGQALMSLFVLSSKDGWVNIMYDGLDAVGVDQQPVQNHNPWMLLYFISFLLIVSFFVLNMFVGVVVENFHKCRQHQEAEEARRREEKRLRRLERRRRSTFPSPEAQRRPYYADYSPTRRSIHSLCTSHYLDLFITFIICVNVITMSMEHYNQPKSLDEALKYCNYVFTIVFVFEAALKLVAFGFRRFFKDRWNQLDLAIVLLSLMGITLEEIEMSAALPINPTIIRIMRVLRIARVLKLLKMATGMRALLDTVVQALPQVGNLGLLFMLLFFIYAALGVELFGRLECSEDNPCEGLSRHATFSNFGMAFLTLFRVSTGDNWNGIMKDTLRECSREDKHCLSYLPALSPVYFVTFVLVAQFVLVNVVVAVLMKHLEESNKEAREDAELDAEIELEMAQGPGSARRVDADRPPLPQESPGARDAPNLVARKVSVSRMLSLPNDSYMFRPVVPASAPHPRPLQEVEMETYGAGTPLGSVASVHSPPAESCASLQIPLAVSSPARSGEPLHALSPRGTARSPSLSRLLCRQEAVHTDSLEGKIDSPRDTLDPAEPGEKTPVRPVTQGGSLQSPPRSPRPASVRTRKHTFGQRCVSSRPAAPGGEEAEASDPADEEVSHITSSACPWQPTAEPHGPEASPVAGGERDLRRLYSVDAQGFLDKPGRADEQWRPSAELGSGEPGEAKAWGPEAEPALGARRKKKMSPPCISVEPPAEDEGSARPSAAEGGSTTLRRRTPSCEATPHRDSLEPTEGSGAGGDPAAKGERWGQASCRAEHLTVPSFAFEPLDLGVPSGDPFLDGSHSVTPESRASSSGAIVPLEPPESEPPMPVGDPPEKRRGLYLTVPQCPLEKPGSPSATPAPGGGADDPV
T2 sequence (Q9UBE0 whole entry): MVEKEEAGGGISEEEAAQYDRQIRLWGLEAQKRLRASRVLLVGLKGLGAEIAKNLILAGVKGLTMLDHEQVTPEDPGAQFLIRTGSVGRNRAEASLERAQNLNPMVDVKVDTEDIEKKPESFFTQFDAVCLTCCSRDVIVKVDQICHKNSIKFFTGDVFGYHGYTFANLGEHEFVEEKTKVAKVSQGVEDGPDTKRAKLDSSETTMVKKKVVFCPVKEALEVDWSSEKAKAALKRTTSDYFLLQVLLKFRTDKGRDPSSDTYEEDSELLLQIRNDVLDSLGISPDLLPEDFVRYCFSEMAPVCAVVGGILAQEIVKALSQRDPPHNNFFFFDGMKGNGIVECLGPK
T2 sequence (Q9UBT2 whole entry): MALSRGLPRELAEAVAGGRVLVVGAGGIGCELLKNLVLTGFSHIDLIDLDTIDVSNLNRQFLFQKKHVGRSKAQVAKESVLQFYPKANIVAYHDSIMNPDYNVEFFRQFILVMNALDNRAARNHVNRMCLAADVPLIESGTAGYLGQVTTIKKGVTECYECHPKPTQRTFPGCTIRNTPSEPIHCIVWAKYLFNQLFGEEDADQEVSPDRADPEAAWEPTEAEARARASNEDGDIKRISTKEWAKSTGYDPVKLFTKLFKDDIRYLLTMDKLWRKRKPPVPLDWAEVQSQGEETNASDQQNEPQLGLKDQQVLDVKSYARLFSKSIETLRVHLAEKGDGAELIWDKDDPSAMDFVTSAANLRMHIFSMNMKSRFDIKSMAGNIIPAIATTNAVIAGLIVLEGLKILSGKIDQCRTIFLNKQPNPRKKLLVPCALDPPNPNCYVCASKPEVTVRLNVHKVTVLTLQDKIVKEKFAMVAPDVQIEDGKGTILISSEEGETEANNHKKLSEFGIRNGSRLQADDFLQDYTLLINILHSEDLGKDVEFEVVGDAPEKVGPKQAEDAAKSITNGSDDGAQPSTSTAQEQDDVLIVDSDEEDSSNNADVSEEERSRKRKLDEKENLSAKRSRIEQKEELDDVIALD

Compound: O=c1c(C(c2ccccc2)c2c(O)sc3ccccc3c2=O)c(O)sc2ccccc12
- IC50 [1]: 4.29 µM (not active)
- IC50 (SUMO-activating enzyme [2]): 4.11 µM (active)
- IC50 (SUMO-activating enzyme [3]): 11.3 µM (active)

Compound: Cn1cnnc1Sc1nc2ccccc2nc1NS(=O)(=O)c1ccccc1
- EC50 (Troponin, cardiac muscle): > 71.5 µM (inactive)

Compound: Cc1ccc(C)c(C(=O)CSc2nnc(C(C)C)[nH]2)c1
- EC50 (Troponin, cardiac muscle): > 71.5 µM (inactive)

Compound: COc1ccc(NC(=O)[C@@H](NC(=O)c2ccccc2)C(C)C)cc1S(=O)(=O)N1CCCCC1
- IC50 (Aminopeptidase N): 39 µM (active)

Compound: Cc1cccn2c(=O)c(/C=C3\SC(=S)N(CC(C)C)C3=O)c(NCCCOC(C)C)nc12
- EC50 (Troponin, cardiac muscle): 0.287 µM (active)

Compound: O=C(CSc1n[nH]c2c3ccccc3nc-2n1)Nc1ccc(S(=O)(=O)Nc2ncccn2)cc1
- IC50 (Leucine aminopeptidase): 28.3 µM (active)
- IC50 (Aminopeptidase N): 61.6 µM (active)

Compound: O=C(Nc1ccc2c(c1)OCO2)C1CCN(S(=O)(=O)c2ccc3c(c2)OCCO3)CC1
- IC50 (Aminopeptidase N): 45.7 µM (active)

Compound: O=C(NC(=S)NNC(=O)c1ccco1)c1ccc(Br)cc1
- EC50 [4]: 1.03 µM (active)
- EC50 [5]: 13.3 µM (active)
- EC50 [6]: 5.96 µM (active)
- EC50 (Streptococcus): 2.16 µM (active)

Compound: COc1ccccc1N1CCN(CC(=O)Nc2ccc(Cl)c(C(F)(F)F)c2)CC1
- EC50 [7]: 4.08 µM (active)

Compound: O=C(Nc1ccccc1Oc1cccnc1)C1CCCN(Cc2cccc(Cl)c2)C1 (stereo not drawn)
- EC50 [5]: 3.76 µM (active)

Compound: Cc1ccc(N2CCN(C(=O)c3ccccc3F)CC2)c(C)c1
- EC50 [5]: 5.96 µM (active)

Compound: COc1ccc(-n2nc(C(=O)NCC(=O)N3CCC(C)CC3)c3ccccc3c2=O)cc1
- AC50 (CAAX prenyl protease 2): 3.87 µM (active)

Compound: O=C(Cc1ccccc1F)Nc1nc(-c2cccs2)cs1
- EC50 [7]: 1.98 µM (active)

Compound: C=C(C)CSc1nc2sc3c(c2c(=O)n1-c1ccc(OC)cc1)CCN(C)C3
- AC50 (CAAX prenyl protease 2): 3.45 µM (active)

Compound: CC(C)N(Cc1nc(-c2ccc(Cl)cc2)no1)C(=O)CCCN1C(=O)c2ccccc2C1=O
- EC50 [7]: 3.89 µM (active)

Compound: CCc1cnn(-c2ccc(C(C)C)cc2)c(=O)c1Oc1ccc(OC)cc1
- IC50 [8]: 12.8 µM (inactive)

Compound: COc1ccc(Oc2c(C3CC3)cnn(-c3ccc(C)cc3)c2=O)cc1
- IC50 [8]: 5.4 µM (active)
